From patent publication US8207136B2, “Nucleoside compounds and methods of use thereof” (The Board of Trustees of the University of Illinois, priority 2005, dated 2012)
Read-outs that look alike come from different tables or passages of the source. Starred links: 1 amine or outer side, 2 acyl side, 3 side chain; linkers in the order of their positions; H or OH if unused. Positions of bridges follow the written chain, without caps; N, C: chain ends. Non-standard residues stand in square brackets, D forms with d. Residues, ends and D or L forms follow the SMILES beside them. Chains are numbered I, II in the order given. Actinocin(9to1) = Cc1c2oc3c(C)ccc(C(=O)[*:1])c3nc-2c(C(=O)[*:2])c(N)c1=O; NMeV = CN[C@H](C(=O)O)C(C)C; Sar = CNCC(=O)O

Key:
[1] = target: T1, RNA polymerase II (Homo sapiens, UniProt P24928); experiment: Nuclear run-on assay, nuclei isolated from untreated HCT-116 cells then treated; type: biochemical; settings: 50 μM ARC, 50 μM DRB or 2 μg/ml α-amanitin
T1 construct: nuclei were isolated from normally growing untreated HCT-116 cells and treated with each of these agents; endogenous in cells; host or cells: nuclei of HCT-116 colon cancer cells
Experimental: (§1) Run-on assays with isolated nuclei were performed as described. Briefly, cells treated with the indicated agents were lysed with hypotonic buffer (10 mM Tris-HCl pH 7.4, 10 mM NaCl and 35 mM MgCl2) and nuclei collected by centrifugation and resuspended in nuclear storage buffer (50 mM HEPES pH 8.0, 5 mM MgCl2, 0.5 mM DTT, 1 mg/ml BSA and 25% (v/v) glycerol) at about 5×10^8 nuclei/ml and stored at −80° C. Transcription reactions were performed in 200 μl volume consisting of 1×10^7 nuclei in the presence of 0.12 M KCl, 7 mM Mg(Ac)2, 25 μCi of [^32P]GTP, 500 μM ATP, UTP and CTP at 30° C. Samples were collected at various time points (18 μl/time point—0, 5, 10, 20 and 30 min) and the reaction terminated by the addition of 57 μl of Sarkosyl solution (1% Sarkosyl, 0.1 M Tris pH 8.0, 0.1 M NaCl, 10 mM EDTA and 200 μg/ml tRNA). The stopped reactions were transferred to Whatman DE81 paper, and washed four times with wash buffer (5% K2HPO4 and 0.3% Na4P2O7) for 10 min, followed by a 5-min water wash. Then the paper was briefly rinsed with 95% ethanol and allowed to dry completely. Radiation was quantitated using a liquid scintillation counter.
In order to evaluate the ability of ARC to bind to and inhibit RNA polymerase II directly (like α-amanitin) or indirectly (like DRB), nuclei were isolated from normally growing untreated HCT-116 cells and treated with each of these agents, and then assayed for rate of transcription by nuclear run-on assay.

[2] = tested on: HUVECs; settings: literature value [28]; read-out: IC50, cell motility; cited from earlier work
[3] = tested on: HUVECs; settings: literature value [28]; read-out: IC50, cord formation; cited from earlier work
[4] = tested on: p53; experiment: Gel shift assay with nuclear extracts and p53 consensus probe; type: cell-based, human; settings: MCF-7 nuclear extracts
Experimental: Either purified p53 protein or nuclear extracts were used in the gel shift assays. For preparation of nuclear extracts, cells treated either with DMSO or different agents (doxorubicin, ARC and actinomycin D) were harvested 24 hours later and lysed in hypotonic buffer (10 mM HEPES pH 7.9, 1.5 mM MgCl2, 10 mM KCl, 0.2 mM PMSF, 0.5 mM DTT, 1 mM Na3VO4, 1 mM NaF, 1 mM Aprotinin and 1 mM Leupeptin), nuclei pelleted and treated with high-salt buffer (20 mM HEPES pH 7.9, 20% (v/v) glycerol, 1.5 mM MgCl2, 0.5 M KCl, 0.2 mM EDTA, 0.2 mM PMSF, 0.5 mM DTT, 1 mM Na3VO4, 1 mM NaF, 1 mM Aprotinin and 1 mM Leupeptin). Nuclear extracts (10 μg) or purified p53 protein (100 ng) were incubated with 0.5 ng of p53 consensus double-stranded oligos (5′-TACAGAACATGTCTAAGCATGCTGGGGACT-3′; Santa Cruz Biotechnology) that were labeled with [γ^32P]ATP. As a control, anti-p53 antibody (PAb421, EMD Biosciences) was used to supershift the p53/DNA complex. The reaction mixtures were resolved on a 4% acrylamide DNA-retardation gel, dried and exposed to X-ray film in the presence of intensifying screen.
Although the effects of ARC were p53-independent, ARC did affect some properties of p53. […] This is in contrast to actinomycin D, which is known to enhance the DNA binding ability of p53 [22]. […] To determine if ARC retains p53 in the cytoplasm, which may lead to decreased binding in the gel shift assays, p53 levels in nuclear lysates were examined.

[5] = tested on: RNA polymerase II transcription; experiment: Nuclear run-on assay, nuclei from treated HCT-116 cells; type: cell-based, human; settings: HCT-116 cells treated 2 hours with 1 mM
Experimental: as §1
Some transcriptional inhibitors such as DRB and flavopiridol repress p21 and hdm2 while increasing p53 levels. […] To evaluate this activity, HCT-116 cells were treated with one of DMSO (control), ARC or DRB, and nuclei were isolated. These nuclei were assayed for rate of transcription either in the presence or absence of α-amanitin using the nuclear run-on assay. […] If ARC inhibits polymerase I and III transcription, the rate of transcription should be substantially lower in the ARC+α-amanitin (FIG. 2A; curve 5) when compared with DMSO+α-amanitin (FIG. 2A; curve 4). However both of these rates of transcription were similar, implying that ARC might preferentially affect only RNA polymerase II transcription.

[6] = tested on: LIM1215 colon cancer cells; experiment: Apoptosis by PI staining and flow cytometry in LIM1215 cells; type: cell-based, human; settings: 50 μM, 48 hours
Experimental: For Flow Cytometry, cells were fixed in 70% ethanol and stored at −20° C. until further analysis. Equal numbers of fixed cells were then stained with PI solution (0.1% Triton X-100, 0.2 mg/ml DNase free RNase, 0.02 mg/ml propidium iodide) made in PBS for 15 min at 37° C. and analyzed by a flow cytometer.
In order to evaluate the extent to which ARC induces apoptosis relative to that of the other known nucleoside analog DRB, LIM1215 colon cancer cells were treated with either ARC or DRB for 48 hours.

With `CC[C@H](C)[C@@H]1NC(=O)CNC(=O)[C@@H]2Cc3c([nH]c4cc(O)ccc34)[S+]([O-])C[C@@H](NC(=O)CNC1=O)C(=O)N[C@@H](CC(N)=O)C(=O)N1C[C@H](O)C[C@H]1C(=O)N[C@@H]([C@@H](C)[C@@H](O)CO)C(=O)N2` (stereo in doubt) [α-amanitin] the “rate of transcription, agent added to isolated nuclei” value [1] was “dramatically inhibited transcription”.

In the case of `CO[C@@H]1[C@H](OC(=O)NC(=O)CCl)CC[C@]2(CO2)[C@H]1[C@@]1(C)O[C@@H]1CC=C(C)C` [TNP-470], the IC50 [2] is given as ~600 nM and the IC50 [3] is given as ~700 nM.

In the case of `Cc1c2oc3c(C)ccc(C(=O)N[C@@H]4C(=O)N[C@H](C(C)C)C(=O)N5CCC[C@H]5C(=O)N(C)CC(=O)N(C)[C@@H](C(C)C)C(=O)O[C@@H]4C)c3nc-2c(C(=O)N[C@@H]2C(=O)N[C@H](C(C)C)C(=O)N3CCC[C@H]3C(=O)N(C)CC(=O)N(C)[C@@H](C(C)C)C(=O)O[C@@H]2C)c(N)c1=O` [actinomycin D, reference compound] (I: T[dV]P[Sar][NMeV] / II: T[dV]P[Sar][NMeV]; ester I:1-I:C, II:1-II:C; linker I:N-II:N via Actinocin(9to1)), the “DNA binding ability of p53, agent alone” value [4] is reported as “increased the DNA binding ability of p53”.

For `OC[C@H]1O[C@@H](n2cnc3cc(Cl)c(Cl)cc32)[C@H](O)[C@@H]1O` [DRB, 5,6-Dichloro-1-β-ribofuranosylbenzimidazole, reference compound], the “rate of transcription versus control nuclei” value [5] was “lower”, the “apoptosis (PI staining, flow cytometry)” value [6] was 23.4% and the “rate of transcription, agent added to isolated nuclei” value [1] was “did not affect the rate of transcription”.
